Assay results taken from ChEMBL document CHEMBL1150640, “Tasiamide, a cytotoxic peptide from the marine cyanobacterium Symploca sp” (J Nat Prod, 2002).
Values after ≈ are worked out from the molar mass of the structure shown.

Assays:
[1] = test system: LoVo; assay: Cytotoxicity against human LoVo cells; type: functional, cell-based
[2] = test system: KB; assay: Cytotoxicity against human KB cells; type: functional, cell-based

CC[C@H](C)[C@H](O)C(=O)N[C@@H](CC(C)C)C(=O)N(C)[C@@H](CCC(N)=O)C(=O)N[C@H](C(=O)NCC(=O)N(C)[C@H](Cc1ccccc1)C(=O)N1CCC[C@H]1C(=O)OC)[C@@H](C)CC [TASIAMIDE]
IC50 [1]: 3.47 µg/mL (≈ 4.18 µM) | IC50 [2]: 0.48 µg/mL (≈ 0.578 µM)
